Data on 1 molecule can be found in patent US20220031642A1, “Niclosamide Formulations and Methods of Use” (priority 2020, published 2022).

The test system of series [1] is SARS-CoV-2. In words: microbe, parasite or virus in culture. The format is cell-based. The conditions noted are these: Severe acute respiratory syndrome coronavirus 2, Vero C1008; Vero E6 cells, reporter SARS-CoV-2 MOI of 0.1, luciferase activity 24 h post-infection; read-out: antiviral EC50.
The conditions of series [2]: human, in vivo, po; cited from earlier work.

In the case of `O=C(Nc1ccc([N+](=O)[O-])cc1Cl)c1cc(Cl)ccc1O` [niclosamide, Niclosamide], the EC50 in series [1] came out at 150 nM. Moreover, the “tmax (plasma levels peaked)” value in series [2] is 4 h.
